This note sets out measurements from DBAASP.

Holding throughout (assay): ≥ marks a high value that may be exact or a test limit, other limits are often not marked, values filed in µg/mL are converted to µM
Experiment [1] concerns Alternaria sp.
Experiment [2] deals with Aspergillus niger.
Experiment [3] concerns Aspergillus ochraceus.
Experiment [4] relates to Colletotrichum sp.
The test system of experiment [5] is Escherichia coli ATCC 35218.
The test system of experiment [6] is Fulvia fulva.
Experiment [7] has as its system Fusarium oxysporum.
In experiment [8] the test system is Pseudomonas aeruginosa ATCC 27853.
The test system of experiment [9] is Staphylococcus aureus ATCC 25325.
Experiment [10] relates to Micrococcus luteus BCRC 11034.
Experiment [11] has as its system Staphylococcus aureus BCRC 10780.
For experiment [12], the system named is Staphylococcus sp. BCRC 10451.
In experiment [13] the test system is Streptococcus pneumoniae BCRC 10794.
Experiment [14] has as its system Neisseria gonorrhoeae F62.
For experiment [15], the system named is Neisseria gonorrhoeae FA19.
Experiment [16] concerns Bacillus anthracis Sterne 34F2.
The test system of experiment [17] is Bacillus subtilis ATCC 9372.
For experiment [18], the system named is Burkholderia thailandensis.
Experiment [19] concerns Acinetobacter baumannii ATCC 19606.
The subject of experiment [20] is Acinetobacter baumannii ATCC BAA-1605.
The test system of experiment [21] is Acinetobacter baumannii ATCC BAA-747.
For experiment [22], the system named is Acinetobacter baumannii NR-17777.
In experiment [23] the test system is Acinetobacter baumannii NR-17784.
Experiment [24] concerns Acinetobacter baumannii NR-9667.
For experiment [25], the system named is Pseudomonas aeruginosa 1017.
The test system of experiment [26] is Pseudomonas aeruginosa 1109.
Experiment [27] relates to Pseudomonas aeruginosa 1133.
The test system of experiment [28] is Pseudomonas aeruginosa ATCC 10145.
For experiment [29], the system named is Pseudomonas aeruginosa ATCC 15442.
Experiment [30] relates to Pseudomonas aeruginosa ATCC 25619.
Experiment [31] deals with Pseudomonas aeruginosa ATCC 35032.
For experiment [32], the system named is Pseudomonas aeruginosa ATCC 9027.
For experiment [33], the system named is Pseudomonas aeruginosa ATCC 9721.
For experiment [34], the system named is Pseudomonas aeruginosa ATCC BAA-1744.
In experiment [35] the test system is Staphylococcus aureus ATCC 43300.
The test system of experiment [36] is Staphylococcus aureus ATCC 6538.
Experiment [37] deals with Staphylococcus aureus ATCC BAA-44.
Experiment [38] concerns Staphylococcus aureus NRS 19.
In experiment [39] the test system is Staphylococcus aureus NRS 1.
Experiment [40] relates to Staphylococcus aureus NRS 72.
For experiment [41], the system named is Staphylococcus aureus NRS 77.
Experiment [42] deals with Staphylococcus aureus RN4220.
The subject of experiment [43] is Staphylococcus aureus USA 100.
Experiment [44] has as its system Staphylococcus aureus USA 200.
The subject of experiment [45] is Staphylococcus aureus USA 300.
Experiment [46] has as its system Staphylococcus aureus VRSA1.
Experiment [47] concerns Staphylococcus aureus VRSA2.
The test system of experiment [48] is Staphylococcus epidermidis NRS 101.
Experiment [49] relates to Vibrio alginolyticus.
The subject of experiment [50] is Vibrio harveyi BCRC 13812.

Structures are written as SMILES. ≈ marks a conversion by molar mass, not a printed value. Bounds are passed on as bounds.

The term MIC denotes the least concentration at which growth counts as inhibited. The low end stands for greater potency, the high end for weaker potency. `CC(C)C[C@H](NC(=O)[C@H](Cc1ccc(O)cc1)NC(=O)[C@H](Cc1cnc[nH]1)NC(=O)[C@@H](NC(=O)[C@H](CC(C)C)NC(=O)[C@H](C)NC(=O)[C@H](C)NC(=O)[C@H](CCCCN)NC(=O)CNC(=O)[C@@H](NC(=O)[C@H](Cc1cnc[nH]1)NC(=O)[C@@H](N)CCCCN)C(C)C)[C@@H](C)O)C(=O)O` [KHVGKAALTHYL]: the minimal inhibitory concentration (MIC) in experiment [1] is 4.67 µM (≈ 6.25 µg/mL); in [2], 4.67 µM (≈ 6.25 µg/mL); in [3] it was at least 37.4 µM; in [4], 2.33 µM (≈ 3.12 µg/mL); in experiment [5], 4 µM (≈ 5.35 µg/mL); in experiment [6] it was 9.35 µM (≈ 12.5 µg/mL). For the same compound, the figures for the MIC in [7], in [8] and in [9] were 2.33 µM (≈ 3.12 µg/mL), 9.1 µM (≈ 12.2 µg/mL) and 4.6 µM (≈ 6.15 µg/mL), respectively.
On to `CC[C@H](C)[C@H](NC(=O)[C@H](CCCCN)NC(=O)[C@@H]1CCCN1C(=O)[C@@H](NC(=O)[C@H](CC(C)C)NC(=O)[C@H](C)NC(=O)[C@H](Cc1ccccc1)NC(=O)[C@H](Cc1ccccc1)NC(=O)CNC(C)=O)[C@@H](C)CC)C(=O)N[C@H](C(=O)N[C@@H](CO)C(=O)N[C@@H](CO)C(=O)N1CCC[C@H]1C(=O)N[C@@H](CC(C)C)C(=O)N[C@@H](Cc1ccccc1)C(=O)N[C@@H](CCCCN)C(=O)N[C@H](C(=O)N[C@@H](CC(C)C)C(=O)N[C@@H](CC(C)C)C(=O)N[C@@H](CO)C(=O)N[C@@H](C)C(N)=O)[C@@H](C)O)[C@@H](C)CC` [GFFALIPKIISSPLFKTLLSA], for which the MIC in [10] was at least 44.2 µM; in experiment [11], at least 44.2 µM; in experiment [12], 5.52 µM (≈ 12.7 µg/mL); in experiment [13] it was at least 44.2 µM.
On to `CC(C)[C@H](NC(=O)[C@@H]1CSSC[C@H](N)C(=O)N[C@@H](Cc2ccc(O)cc2)C(=O)N[C@H]2CSSC[C@H](NC(=O)[C@H](Cc3ccccc3)NC(=O)[C@H](CCCNC(=N)N)NC(=O)[C@H](CCCNC(=N)N)NC(=O)[C@H](CCCNC(=N)N)NC2=O)C(=O)N[C@@H](C(C)C)C(=O)N1)C(=O)NCC(=O)N[C@@H](CCCNC(=N)N)C(N)=O` [CYCRRRFCVCVGR], for which the MIC in experiment [14] stood at 2.7 µM (≈ 4.36 µg/mL); in experiment [15], 6.56 µM (≈ 10.6 µg/mL).
Turning to `CC[C@H](C)[C@H](NC(=O)[C@H](Cc1cnc[nH]1)NC(=O)[C@H](CCCCN)NC(=O)[C@@H](NC(=O)[C@@H](NC(=O)[C@H](CC(=O)O)NC(=O)[C@H](Cc1ccccc1)NC(=O)[C@H](Cc1c[nH]c2ccccc12)NC(=O)CN)C(C)C)C(C)C)C(=O)N[C@@H](C)C(=O)N[C@@H](CO)C(=O)N[C@@H](C)C(=O)N[C@H](C(=O)O)C(C)C` [GWFDVVKHIASAV], the results for the MIC in experiment [16], in experiment [17] and in [18] were at least 100 µM, at least 100 µM and at least 50 µM, respectively.
For `CC[C@H](C)[C@H](NC(=O)[C@H](CCCN=C(N)N)NC(=O)[C@H](CCCN=C(N)N)NC(=O)[C@H](CC(C)C)NC(=O)[C@@H](N)Cc1c[nH]c2ccccc12)C(=O)N[C@@H](CCCCN)C(=O)N[C@@H](C)C(=O)N[C@@H](Cc1c[nH]c2ccccc12)C(=O)N[C@@H](CC(C)C)C(=O)N[C@@H](CCCN=C(N)N)C(=O)N[C@@H](CCCN=C(N)N)C(=O)O` [WLRRIKAWLRR], the MIC was 16 µM (≈ 24.9 µg/mL) in experiment [19]; at least 32 µM in experiment [20]; at least 64 µM in [21]; 16 µM (≈ 24.9 µg/mL) in experiment [22]; at least 64 µM in [23]; at least 32 µM in experiment [24]. Also, the MIC is at least 128 µM in experiment [25]; at least 128 µM in experiment [26]; at least 64 µM in experiment [27]; at least 128 µM in experiment [28]; at least 128 µM in [29]; at least 64 µM in experiment [30]. Also, the MIC in experiment [8] is 64 µM (≈ 99.5 µg/mL); in experiment [31] it was at least 64 µM; in experiment [32], 64 µM (≈ 99.5 µg/mL); in experiment [33] it was at least 64 µM; in experiment [34] it was at least 128 µM; in experiment [35], 16 µM (≈ 24.9 µg/mL). Also, the minimal inhibitory concentration (MIC) in experiment [36] was 16 µM (≈ 24.9 µg/mL); in experiment [37], 16 µM (≈ 24.9 µg/mL); in experiment [38], 8 µM (≈ 12.4 µg/mL); in experiment [39], 16 µM (≈ 24.9 µg/mL); in [40], at least 32 µM; in experiment [41], 16 µM (≈ 24.9 µg/mL). The MIC in [42] was 8 µM (≈ 12.4 µg/mL); in experiment [43], 16 µM (≈ 24.9 µg/mL); in experiment [44] it was 8 µM (≈ 12.4 µg/mL); in experiment [45], 16 µM (≈ 24.9 µg/mL); in [46] it was at least 32 µM; in experiment [47], 16 µM (≈ 24.9 µg/mL). Further, the minimal inhibitory concentration (MIC) in experiment [48] was 8 µM (≈ 12.4 µg/mL).
`CC[C@H](C)[C@H](NC(=O)[C@H](Cc1ccccc1)NC(C)=O)C(=O)N[C@@H](Cc1ccccc1)C(=O)N[C@@H](Cc1cnc[nH]1)C(=O)N[C@H](C(=O)N[C@H](C(=O)N[C@@H](CCCCN)C(=O)NCC(=O)N[C@@H](CC(C)C)C(=O)N[C@@H](Cc1ccccc1)C(=O)N[C@@H](Cc1cnc[nH]1)C(=O)N[C@@H](C)C(N)=O)[C@@H](C)CC)[C@@H](C)CC` [FIFHIIKGLFHA]: the MIC in experiment [11] was found to be 4.33 µM (≈ 6.43 µg/mL); in experiment [12], 8.66 µM (≈ 12.9 µg/mL); in [49], 17.3 µM (≈ 25.7 µg/mL); in experiment [50], 4.33 µM (≈ 6.43 µg/mL).
